Assays:
[1] = GLP 14-day extended single SC dose toxicity study in rats; settings: rat; for NOAEL at 14 days: in vivo
Protocol: (§1) In a GLP 14-day extended single SC dose toxicity study in rats, doses of 0 (PBS), 10, 25 and 75 mg/kg were evaluated. Animals were necropsied on Study Day 2 and Day 14 (also referred to as Recovery Day 13) post-dosing.
(§2) A non-GLP dose range study was performed in the dog in order to determine an MTD. Single SC doses of 7.5, 15 and 20 mg/kg were evaluated.

rats = test: as above
Protocol: as §1, §2

rabbit hepatocytes = test: Hepatocyte intrinsic clearance, rabbit; assay type: in vitro ADME
Text: (§3) In human, rat, rabbit, dog and monkey hepatocytes, the metabolite profile of RE104 was qualitatively similar across these species with only minor differences.

human hepatocytes = test: Hepatocyte intrinsic clearance, human; assay type: in vitro ADME
Text: as §3

monkey hepatocytes = test: Hepatocyte intrinsic clearance, monkey; assay type: in vitro ADME
Text: as §3

dog hepatocytes = test: Hepatocyte intrinsic clearance, dog; assay type: in vitro ADME
Text: as §3

[2] = Prodrug cleavage in mouse plasma; assay type: in vitro ADME; settings: 37° C.
Protocol: (§4) Mean values from 3 replicate assays are reported. See the Supplemental Methods for additional details.
(§5) Triplicate aliquots (50 μL) of each spiked plasma solution were immediately added to 200 μL of ice-cold methanol/acetonitrile solution (50:50 v/v) containing the internal standards to generate time zero samples. Spiked plasma solutions were incubated at 37° C. in an orbital shaker set to 75 rpm, and 50-μL samples were taken in triplicate after 30 minutes and 1, 2, and 4 hours of incubation. Each sample was immediately added to 200 μL ofice-cold methanol/acetonitrile solution containing the internal standard(s) to terminate the reaction. Samples were mixed by vortex and then stored at −80° C. until analysis.
(§6) Calibration standards were prepared in plasma for each species and analyzed in batches by LC-MS/MS. Sample batches consisted of 3 replicates of a system suitability standard (containing the analyte and internal standard), the appropriate calibration standards in ascending order including a blank sample without internal standard, a zero sample (with internal standard), and at least 6 nonzero standards and the assay samples, followed by the 3 replicates of the system suitability sample.

[3] = Prodrug cleavage in dog plasma; assay type: in vitro ADME; settings: after 4 hours of incubation
Protocol: as §4, §5, §6

[4] = Prodrug cleavage in human plasma; assay type: in vitro ADME; settings: human plasma, 37° C.
Protocol: as §4, §5, §6

[5] = Metabolite profiling in monkey plasma after SC RE104; assay type: in vivo, cynomolgus monkey; settings: pooled plasma 0 to 12 hours post dose, SC 0.5 mg/kg RE104
Text: Blood samples were centrifuged to obtain plasma.

male Wistar rats = test: Forced swim test (FST) in rats; assay type: in vivo, rat
[6] = Phase 1 FIH study: plasma pharmacokinetics (LC-MS/MS); assay type: in vivo; settings: human; for Cmax / Tmax / half-life: female, plasma; for half-life: read-out: t1/2, mean (converted)
Protocol: The study was a double-blind, randomized, placebo-controlled Phase 1 single ascending dose study in up to 6 cohorts in healthy females. Eligibility was assessed during a screening period of up to 28 days prior to enrollment. For the treatment period, subjects were admitted to the clinical research unit (CRU) one day prior to the dosing (Day −1). On Day 1, all subjects will received the assigned SC dose of RE104 HCl or placebo in a fed state (after domiciling overnight and consuming a planned evening meal on Day −1 and morning meal on Day 1 while at the CRU). Subjects were allowed to select snacks from a planned menu from 4 hours following dosing. Subjects were discharged from the clinic on Day 2 (−24 hours post-dose) after all required study procedures were completed and if deemed medically fit. Subjects returned to the clinic on Day 10 (±2 days) for a follow up visit.
The concentrations of RE104 and isoprocin in plasma were determined using a validated Liquid chromatography tandem mass spectrometry (LC-MS/MS) assay.

in vivo = settings: male, beagle, dog, plasma
Protocol: Two consecutive doses were separated by z7 days. Plasma samples were analyzed using an LC-MS/MS method (lower limit of quantification of 1.00 ng/mL for both analytes).
Pharmacokinetic parameters were calculated using Phoenix WinNonlin, version 6.3 or 8.2 (Certara, Princeton, NJ, USA).
For dog PK assessments, approximately 0.5 mL of blood was collected via superficial vein before dose and at 5 (for IV and SC injections only), 15, and 30 minutes and 1, 2, 4, 8, 16, 24, 48, and 72 hours post dose into tubes containing K2EDTA with 10 mM Dichlorvos as the anticoagulant and stabilizer, respectively.

[7] = biological target: human recombinant 5-HT2A receptors (Homo sapiens, UniProt P28223); test: 5-HT2A agonist radioligand binding assay ([125I]DOI)
Protocol: Increasing concentrations of RE104 were incubated with 0.2 nM [^125I]DOI in CHO cell cultures expressing human recombinant 5-HT2B receptors.
Radioligand concentration was measured by scintillation counting; compound binding was calculated as percent inhibition of the binding of [^125I]DOI. In agonist activity assays, test concentrations of RE104 were incubated with HEK-293 cells expressing human recombinant 5-HT2A receptors; IP1 production was detected using homogeneous time-resolved fluorescence. Activation was calculated as a percentage of the response to the positive control (10 μM 5-HT).
Inhibition constants were calculated by using the Cheng-Prusoff equation Ki=IC50/(1+L/KD), where L=radioligand concentration and KD=radioligand affinity for the receptor (determined with a Scatchard plot). In the functional activity assay test concentrations of RE104 were 10 nM, 30 nM, 100 nM, 300 nM, 1 μM, 3 μM, 10 μM, and 30 μM. EC50 and IC50 values were determined by nonlinear regression analysis of the concentration-response curves generated with mean replicate values using Hill equation curve fitting.

[8] = GLP 14-day extended single SC dose toxicity study in dogs; settings: beagle, dog, sc
dogs = test: as above
[9] = Rat PK after single IV or SC RE104 HCl 2 mg/kg (Example 1); settings: plasma, sc, 2 mg/kg
[10] = expressed as zwitterion, 60 kg human, BSA conversion

Chain of human recombinant 5-HT2A receptors (P28223 whole entry): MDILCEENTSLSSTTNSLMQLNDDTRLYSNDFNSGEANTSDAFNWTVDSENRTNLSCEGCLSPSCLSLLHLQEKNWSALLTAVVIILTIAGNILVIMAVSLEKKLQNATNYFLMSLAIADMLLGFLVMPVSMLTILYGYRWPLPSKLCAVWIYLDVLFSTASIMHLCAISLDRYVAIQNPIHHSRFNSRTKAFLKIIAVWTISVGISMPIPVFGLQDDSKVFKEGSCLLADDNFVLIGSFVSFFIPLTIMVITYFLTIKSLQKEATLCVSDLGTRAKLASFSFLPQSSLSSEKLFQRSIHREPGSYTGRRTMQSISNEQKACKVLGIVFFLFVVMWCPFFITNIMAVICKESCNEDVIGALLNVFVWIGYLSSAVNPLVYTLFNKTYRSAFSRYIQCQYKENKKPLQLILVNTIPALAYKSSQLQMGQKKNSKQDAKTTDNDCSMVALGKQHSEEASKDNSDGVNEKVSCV

Compound: CC(C)N(CCc1c[nH]c2cccc(OC(=O)CCCC(=O)O)c12)C(C)C [RE104]
- NOAEL at 14 days ([1]; Sprague Dawley, sc): 10 mg/kg
- Cmax ([1]; Sprague Dawley, plasma, sc, 10 mg/kg): 0.751 ng/mL
- NOAEL at 14 days ([1]; both, Sprague Dawley, sc): 10 mg/kg
- NOAEL at 14 days ([1]; female, subcutaneous): 10 mg/kg
- human equivalent dose [HED] of the 10 mg/kg rat dose (rats; [10]): approximately 97 mg
- low adverse effect level (LOAEL) (rats; male rats): 10 mg/kg
- 1/10 of HED (rats; rat): 0.16 mg/kg
- 1/10 of Human BSA dose (rats; rat): 9.7 mg
- Human BSA dose (rats; rat): 60 mg/m^2
- fold HED higher than proposed starting dose (rats; rat HED vs 5 mg (zwitterion)): approximately 19 fold
- fold HED higher than maximum proposed dose (rats; rat HED vs 48 mg (zwitterion)): ~2 fold
- HED (rats; rat NOAEL, BSA conversion factors): 1.6 mg/kg
- Human BSA dose (rats; rat, based on a BSA of 1.62 m^2): 97.2 mg
- in vitro intrinsic clearance (CLint) (rabbit hepatocytes): 4.88 mL/hr/106 cells
- in vitro intrinsic clearance (CLint) (human hepatocytes): 3.45 mL/hr/106 cells
- in vitro intrinsic clearance (CLint) (monkey hepatocytes): 1.14 mL/hr/106 cells
- in vitro intrinsic clearance (CLint) (dog hepatocytes): 0.87 mL/hr/106 cells
- completeness of conversion [2]: > 95%
- time of conversion to 4-OH-DiPT [2]: < 30 min
- prodrug remaining [3]: 39%
- completeness of conversion [4]: > 95%
- time of conversion to 4-OH-DiPT [4]: < 30 min
- share of the total peak area [5]: 71.1%
- climbing as share of escape behaviors (male Wistar rats; rat FST, day 28): 45%
- swimming as share of escape behaviors (male Wistar rats; rat FST, day 28): 55%
- mean swimming time relative to vehicle (male Wistar rats; rat FST, single 1 mg/kg dose): significantly increased
- mean immobility time vs vehicle (male Wistar rats; rat FST, single 1 mg/kg dose, day 7, 14, and 28): significant decrease
- duration of distinctive serotonergic behaviors (male Wistar rats; rat, dosing day, 1 mg/kg): approximately 3 hours
- Cmax ([6]; RE104 dose 5.5 mg SC (n = 6)): 173 ng/mL
- Tmax ([6]; RE104 dose 5.5 mg SC (n = 6)): 25.2 min
- half-life ([6]; RE104 dose 5.5 mg SC (n = 6)): 31.8 min
- Cmax ([6]; RE104 dose 11 mg SC (n = 6)): 527 ng/mL
- Tmax ([6]; RE104 dose 11 mg SC (n = 6)): 19.8 min
- half-life ([6]; RE104 dose 11 mg SC (n = 6)): 28.8 min
- Cmax ([6]; RE104 dose 22 mg SC (n = 6)): 788 ng/mL
- Tmax ([6]; RE104 dose 22 mg SC (n = 6)): 22.8 min
- half-life ([6]; RE104 dose 22 mg SC (n = 6)): 30 min
- Cmax ([6]; RE104 dose 33 mg SC (n = 9)): 1460 ng/mL
- Tmax ([6]; RE104 dose 33 mg SC (n = 9)): 15 min
- half-life ([6]; RE104 dose 33 mg SC (n = 9)): 25.8 min
- Cmax ([6]; RE104 dose 38 mg SC (n = 6)): 1250 ng/mL
- Tmax ([6]; RE104 dose 38 mg SC (n = 6)): 22.8 min
- half-life ([6]; RE104 dose 38 mg SC (n = 6)): 38.4 min
- Cmax ([6]; RE104 dose 44 mg SC (n = 3)): 1800 ng/mL
- Tmax ([6]; RE104 dose 44 mg SC (n = 3)): 25.2 min
- half-life ([6]; RE104 dose 44 mg SC (n = 3)): 31.2 min
- time after administration by which not detectable in plasma ([6]; any dose): ≤ 5 h
- AUC(0-inf) (in vivo; po, 5 mg/kg): 21.8 ng·h/mL
- AUC(0-t) (in vivo; po, 5 mg/kg): 20 ng·h/mL
- Cmax (in vivo; po, 5 mg/kg): 12.2 ng/mL
- Tmax (in vivo; po, 5 mg/kg): 30 min
- bioavailability (in vivo; po, 5 mg/kg): 0.854%
- half-life (in vivo; po, 5 mg/kg): 78 min
- AUC(0-t) (in vivo; sc, 1 mg/kg): 658 ng·h/mL
- IC50 [7]: 1.6 µM
- Ki ([7]; read-out: binding Ki at the 5-HT2A receptor, radioligand inhibition binding, HEK-293 cells): 4.3 µM
- AUC(0-t) ([8]; plasma, 8 mg/kg): 4540 ng·h/mL
- Cmax ([8]; plasma, 8 mg/kg): 3300 ng/mL
- NOAEL at 14 days ([8]; both, in vivo): 8 mg/kg
- 1/10 of HED (dogs; dog): 0.44 mg/kg
- 1/10 of Human BSA dose (dogs; dog): 25.9 mg
- Human BSA dose (dogs; dog): 160 mg/m^2
- safety margin relative to proposed starting dose (dogs; dog HED vs 5 mg (zwitterion)): approximately 53 fold
- safety margin relative to proposed maximum dose (dogs; dog HED vs 48 mg (zwitterion)): ~5 fold
- HED (dogs; dog NOAEL, BSA conversion factors): 4.4 mg/kg
- Human BSA dose (dogs; dog, based on a BSA of 1.62 m^2): 259 mg
- HED of 8 mg/kg in the dog (dogs; [10]): approximately 267 mg
- bioavailability [9]: ~100%
